# Laboratory results from ChEMBL document CHEMBL1152626, “Glucose-based spiro-isoxazolines: a new family of potent glycogen phosphorylase inhibitors” (Bioorg Med Chem, 2009).
# Molecular target: T1, Glycogen phosphorylase, muscle form (Oryctolagus cuniculus, UniProt P00489)
# T1 sequence (P00489 whole entry): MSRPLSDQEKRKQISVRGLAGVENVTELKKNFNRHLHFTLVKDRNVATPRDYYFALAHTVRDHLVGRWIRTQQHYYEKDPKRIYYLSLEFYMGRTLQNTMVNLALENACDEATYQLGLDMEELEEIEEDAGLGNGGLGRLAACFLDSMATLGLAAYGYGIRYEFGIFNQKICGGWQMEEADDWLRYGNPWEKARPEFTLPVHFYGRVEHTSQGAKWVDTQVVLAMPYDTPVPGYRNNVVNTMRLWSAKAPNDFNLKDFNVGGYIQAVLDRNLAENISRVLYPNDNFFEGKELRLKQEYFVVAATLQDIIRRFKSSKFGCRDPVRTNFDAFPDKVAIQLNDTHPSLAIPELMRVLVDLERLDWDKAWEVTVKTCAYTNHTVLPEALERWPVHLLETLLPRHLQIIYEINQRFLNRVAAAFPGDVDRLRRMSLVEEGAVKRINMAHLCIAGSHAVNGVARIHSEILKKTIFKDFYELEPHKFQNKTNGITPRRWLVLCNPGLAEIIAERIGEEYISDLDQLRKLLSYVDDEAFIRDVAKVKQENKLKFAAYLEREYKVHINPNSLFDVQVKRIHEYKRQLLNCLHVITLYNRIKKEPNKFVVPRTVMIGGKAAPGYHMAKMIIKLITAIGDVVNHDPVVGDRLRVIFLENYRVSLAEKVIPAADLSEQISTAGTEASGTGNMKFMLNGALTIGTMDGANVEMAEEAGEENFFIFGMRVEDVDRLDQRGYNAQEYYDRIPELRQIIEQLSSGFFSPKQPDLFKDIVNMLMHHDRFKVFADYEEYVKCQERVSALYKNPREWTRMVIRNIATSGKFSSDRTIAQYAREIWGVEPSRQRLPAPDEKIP
# Assay: Inhibition of rabbit muscle glycogen phosphorylase b
row,Compound,Ki
1,O=C1NC(=O)[C@@]2(N1)OC[C@@H](O)[C@H](O)[C@H]2O,> 11500 µM
2,O=C1NC(=S)N[C@@]12OC[C@@H](O)[C@H](O)[C@H]2O,> 10000 µM
3,O=C1NC(=O)[C@@]2(C[C@H](O)[C@@H]([C@@H](O)CO)O2)N1,8200 µM
4,O=C1NC(=O)[C@]2(C[C@H](O)[C@@H]([C@@H](O)CO)O2)N1,220000 µM

# Now those with a lower Ki, led by results:
row,Ki,Compound
1,1200 µM,CN1C(=O)N[C@@]2(O[C@H](CO)[C@@H](O)[C@H](O)[C@H]2O)C1=O
2,550 µM,CC(=O)NN1C(=O)N[C@@]2(O[C@H](CO)[C@@H](O)[C@H](O)[C@H]2O)C1=O
3,39 µM,O=C1N[C@@]2(O[C@H](CO)[C@@H](O)[C@H](O)[C@H]2O)C(=O)N1O
4,59.7 µM,O=C1NCC(O)NC12O[C@H](CO)[C@@H](O)[C@H](O)[C@H]2O (some centres undefined)
5,146 µM,NN1C(=O)N[C@@]2(O[C@H](CO)[C@@H](O)[C@H](O)[C@H]2O)C1=O
